{"source": "patent US10406128B2", "about": "“Treatment and diagnosis of colon cancer” (The Rockefeller University, priority 2012, dated 2019)", "key": {"[1]": {"system": "Ls-LvM3b colon cancer cells", "test": "Cell viability of Ls-LvM3b cells, WST-1 reagent, 5'-Fluorouracil with or without B-GPA", "type": "cell-based, human", "conditions": "10 mM B-GPA, 48 hours", "protocol": "To that end, 10,000 Ls-LvM3b cells were seeded in triplicate in 96-well plates and treated with various concentrations of 5′-Fluorouracil with or without 10 mM of B-GPA for 48 hours. Cell viability was assayed in the same manner described above with absorbance at 440 nm an indicator of the number of viable cells."}, "[2]": {"system": "PANC1 pancreatic cancer cells", "test": "Cell viability of PANC1 cells, WST-1 reagent, Gemcitabine with or without B-GPA", "type": "cell-based, human", "conditions": "10 mM B-GPA, 48 hours, Gemcitabine 1 nm-1000000 nm", "protocol": "Briefly, 10000 PANC1 cells were seeded in triplicate in 96-well plates and treated with various concentrations of Gemcitabine (1 nm, 10 nm, 100 nm, 1000 nm, 10000 nm, 100000 nm, and 1000000 nm) with or without 10 mM of B-GPA for 48 hours. Cell viability was then assayed using the WST-1 reagent (Roche Applied Science), with absorbance at 440 nm an indicator of the number of viable cells."}, "[3]": {"system": "LvM3b cells", "test": "Liver metastasis in mice injected with LvM3b cells, treated by daily intra-peritoneal injection, bioluminescent imaging", "type": "in vivo", "protocol": "Mice were treated with 10 mg of cyclocreatine or saline vehicle, administered through intra-peritoneal injection. The treatment regime started one day after inoculation of tumor cells and continued until the mice were euthanized. Beta-guanidipropionic acid was administered at a dose of 200 ul of 0.5M solution through intra-peritoneal injection. Treatment regime were as that for cyclocreatine treatment.\nFinally, assays were carried out to determine the impact of small-molecule inhibition of CKB and restriction of creatine availability on colon cancer metastasis. Cyclocreatine, which resembles phosphocreatine, is a transition-state analog for creatine kinases. To examine the effect of cyclocreatine, bioluminescent measurements of liver metastasis were carried out in mice injected with 5×10^5 LvM3b cells and treated with cyclocreatine daily for two weeks. The mice were then euthanized and livers excised for ex vivo imaging at the end of the treatment.\nSimilar assays were carried out using a creatine transporter inhibitor beta-guanidinopropionic acid (B-GPA). Bioluminescent measurements were used to examine liver metastasis in mice injected with 5×10^5 LvM3b cells and treated with B-GPA daily for two weeks.\nIn this example, assays were carried out to confirm the therapeutic potential of targeting the creatine transporter channel SLC6a8 by administering the small molecule B-GPA, which is an inhibitor of SLC6a8. […] To confirm this therapeutic effect, mice injected with LvM3b colon cancer cells we treated with either B-GPA or control vehicle (PBS) via intra-peritoneal injection daily for three weeks (FIG. 2). The mice were euthanized at three weeks and liver extracted for bioluminescent imaging and gross histology.\nMore specifically, the average photon flux ratios as measure by the bioluminescence imaging for the control group (without treatment of B-GPA) and the treated groups were about 800 and 100, respectively."}, "[4]": {"system": "PANC1 pancreatic cancer cells", "test": "Survival of PANC1 cells pre-treated with B-GPA in immunodeficient mice, bioluminescence imaging", "type": "in vivo", "conditions": "PANC1 cells pre-treated 10 mM 48 hours", "protocol": "Briefly, PANC1 pancreatic cancer cells were incubated for 48 hours with and without the presence of 10 mM of B-GPA, then injected into immunodeficient mice (5×10^5 PANC1 cells each mouse; 4 mice each in the treated and untreated cohort). The mice were imaged with bioluminescence imaging on day 1 after injection and signal was normalized to day zero. […] More specifically, the average photon flux ratios as measure by the bioluminescence imaging for the control group (without treatment of B-GPA) and the treated groups were about 2.7 and 1.6, respectively."}, "[5]": {"biological_target": "T1, SLC6a8 (Homo sapiens, UniProt P48029)", "T1 sequence (P48029 1-635)": "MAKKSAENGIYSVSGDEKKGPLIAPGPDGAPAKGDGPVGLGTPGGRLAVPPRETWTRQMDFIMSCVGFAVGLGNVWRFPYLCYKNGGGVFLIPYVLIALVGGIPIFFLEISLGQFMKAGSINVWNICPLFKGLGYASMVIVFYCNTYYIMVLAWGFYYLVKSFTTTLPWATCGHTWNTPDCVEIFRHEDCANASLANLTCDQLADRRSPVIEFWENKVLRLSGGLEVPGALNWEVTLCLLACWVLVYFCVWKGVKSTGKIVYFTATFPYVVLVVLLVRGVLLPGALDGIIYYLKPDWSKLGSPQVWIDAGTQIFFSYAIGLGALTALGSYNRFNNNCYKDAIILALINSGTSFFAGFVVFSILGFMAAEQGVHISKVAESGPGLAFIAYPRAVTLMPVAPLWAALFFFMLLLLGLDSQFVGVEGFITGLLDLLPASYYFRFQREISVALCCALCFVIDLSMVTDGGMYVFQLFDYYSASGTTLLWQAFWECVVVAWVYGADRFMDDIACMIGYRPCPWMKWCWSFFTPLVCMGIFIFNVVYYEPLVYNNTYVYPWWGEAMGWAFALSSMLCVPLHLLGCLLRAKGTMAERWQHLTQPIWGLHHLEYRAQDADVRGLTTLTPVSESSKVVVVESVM", "test": "Liver metastasis by LvM3b cells expressing shRNA targeting SLC6a8", "type": "in vivo, mice", "parameters": "endogenous in cells; host or cells: LvM3b colon cancer cells (derivative of LS-174T) injected into mice", "conditions": "three weeks after inoculation", "protocol": "(§1) pLKO vectors expressing shRNA hairpins targeting CKB and SLC6a8 were ordered from Sigma-Aldrich. Two independent hairpins that gave the best knockdown of transcript levels were used for all experiments. These hairpin DNA and RNA sequences are listed below:\nBriefly, mice were injected with LvM3b colon cancer cells expressing either of two independent short hairpin RNAs (shSLC6a8 #4 or shSLC6a8 #5) targeting the creatine transporter channel SLC6a8 or with control RNA (empty pLKO vector, ordered from Sigma Aldrich) (FIG. 3a). Again, liver metastasis was monitored by bioluminescent imaging and mice were euthanized three weeks after inoculation of cancer cells. Livers were extracted for gross histology."}, "[6]": {"system": "LvM3b cells", "test": "Liver metastasis in mice injected with LvM3b cells with or without CKB knockdown, pre-treated with metabolite", "type": "in vivo", "conditions": "for rescue of metastasis suppression upon CKB knockdown: LvM3b cells with CKB knockdown, pre-treated 10 uM, day 21", "from_the_text": "CKB is known to regulate the reservoir of rapidly mobilized high-energy phosphates in tissues such as the brain and kidneys by catalyzing the transfer of a high-energy phosphate group from phosphocreatine to ADP, yielding ATP and creatine. It was hypothesized that CKB generation of ATP from phosphocreatine might provide colon cancer cells with an energetic advantage during hepatic colonization. To determine if ATP, the end-product of CKB catalysis, could rescue metastasis suppression seen upon CKB knockdown, CKB knockdown cells were loaded with ATP prior to injection of cells in experimental metastasis assays. Briefly, liver metastasis was examined in mice injected with 5×10^5 LvM3b with or without CKB knockdown and pre-treated with 100 uM ATP or vehicle. Metastatic burden was monitored by bioluminescent imaging and mice euthanized 21 days after injection.\nSimilar studies were done to determine whether creatine and phosphocreatine could rescue the phenotype of seen upon CKB knock-down. More specifically, assays were performed to examine liver metastasis in mice injected with 5×10^5 LvM3b cells pre-treated with 10 uM creatine, in the background of CKB knockdown. The mice were then euthanized as described above and liver extracted for ex vivo bioluminescent imaging at day 21 after injection. Also, colorectal cancer metastasis was examined in mice injected with 5×10^5 LvM3b cells with CKB knockdown and pre-treated with 10 uM creatine-phosphate. Liver metastasis was monitored by bioluminescent imaging and mice were euthanized as described above."}, "[7]": {"biological_target": "T1, SLC6a8", "test": "Liver metastasis by PANC1 cells expressing shRNA targeting SLC6a8", "type": "in vivo, mice", "conditions": "at 28 days", "from_the_text": "as §1\nLastly, the therapeutic benefit of targeting SLC6a8 was investigated in pancreatic cancer cells. To accomplish this, PANC1 pancreatic cancer cells expressing either an shRNA targeting SLC6a8 (shSLC6a8 #5) or a control RNA (empty pLKO vector) were injected into mice. Metastatic progression was monitored by bioluminescent imaging and mice were euthanized in the same manner described above."}, "[8]": {"biological_target": "T1, SLC6a8", "test": "Liver metastasis by SW480 cells expressing shRNA targeting SLC6a8", "type": "in vivo, mice", "conditions": "5×10^5 SW480 cells; 28 days", "protocol": "as §1\nTo further confirm the therapeutic benefit of knockdown of SLC6a8, another independent colon cancer cell line (SW480 colon cancer cell line) expressing a short hairpin RNA targeting SLC6a8 (shSLC6a8 #2) was injected into mice (FIG. 3b)."}, "[9]": {"conditions": "5×10^5 LvM3b cells, treated daily for two weeks"}}, "data": [{"molecule": "N=C(N)NCCC(=O)O", "note": "[B-GPA, beta-guanidinopropionic acid]", "values": [{"measurement": "effect on cytotoxic activity of 5'-Fluorouracil", "setting": "[1]", "result": "enhanced the cytotoxic activity"}, {"measurement": "effect on cytotoxic activity of Gemcitabine", "setting": "[2]", "result": "enhanced the cytotoxic activity"}, {"measurement": "metastatic colonization (liver metastasis, bioluminescence)", "setting": "[3]; [9]", "result": "significantly reduced metastatic colonization"}, {"measurement": "average photon flux ratio (bioluminescence imaging)", "setting": "[3]; LvM3b cells, daily for three weeks, control group about 800", "result": "~100"}, {"measurement": "colon cancer metastasis to the liver", "setting": "[3]; LvM3b cells, intra-peritoneal injection daily for three weeks, P<0.05", "result": "significant reduction"}, {"measurement": "average photon flux ratio (bioluminescence imaging)", "setting": "[4]; day 1 normalized to day zero, control group about 2.7", "result": "~1.6"}, {"measurement": "tumor burden of pancreatic cancer cells in vivo", "setting": "[4]; one day after injection, P<0.05", "result": "significant reduction"}]}, {"molecule": "shSLC6a8 #4: short hairpin RNA targeting SLC6a8, SEQ ID NO 13 (DNA) / 17 (RNA) (CCGGCUUAUUCCCUACGUCCUGAUCCUCGAGGAUCAGGACGUAGGGAAUAAGUUUUUG; listed as RNA, chemistry not fully specified)", "values": [{"measurement": "colon cancer metastasis (liver)", "setting": "[5]", "result": "inhibition of colon cancer metastasis"}]}, {"molecule": "Nc1ncnc2c1ncn2[C@@H]1O[C@H](COP(=O)(O)OP(=O)(O)OP(=O)(O)O)[C@@H](O)[C@H]1O", "note": "[ATP]", "values": [{"measurement": "enhancement of suppressed metastasis phenotype", "setting": "[6]; LvM3b cells depleted of CKB, pre-treated 100 uM, 21 days", "result": "more than 10 folds"}, {"measurement": "metastatic activity of cells expressing a short-hairpin control", "setting": "[6]; LvM3b control hairpin cells, pre-treated 100 uM", "result": "did not enhance the metastatic activity"}]}, {"molecule": "NC1=NCCN1CC(=O)O", "note": "[cyclocreatine]", "values": [{"measurement": "comparison with standard-of-care FOLFOX chemotherapy", "setting": "[3]; [9]", "result": "superior to the current standard-of-care FOLFOX chemotherapy"}, {"measurement": "metastatic colonization (liver metastasis, bioluminescence)", "setting": "[3]; [9]", "result": "significantly reduced metastatic colonization"}]}, {"molecule": "shSLC6a8 #5: short hairpin RNA targeting SLC6a8, SEQ ID NO 14 (DNA) / 18 (RNA) (CCGGAUUACCUGGUCAAGUCCUUUACUCGAGUAAAGGACUUGACCAGGUAAUUUUUUG; listed as RNA, chemistry not fully specified)", "values": [{"measurement": "colon cancer metastasis (liver)", "setting": "[5]", "result": "inhibition of colon cancer metastasis"}, {"measurement": "pancreatic cancer metastasis", "setting": "[7]", "result": "significant reduction in pancreatic cancer metastasis"}]}, {"molecule": "creatine-phosphate", "values": [{"measurement": "rescue of metastasis suppression upon CKB knockdown", "setting": "[6]", "result": "rescued metastasis suppression"}]}, {"molecule": "shSLC6a8 #2: short hairpin RNA targeting SLC6a8, SEQ ID NO 19 (DNA) / 20 (RNA) (CCGGGCUGGUCUACAACAACACCUACUCGAGUAGGUGUUGUUGUAGACCAGCUUUUUG; listed as RNA, chemistry not fully specified)", "values": [{"measurement": "metastasis of SW480 colon cancer cells", "setting": "[8]", "result": "significantly inhibited metastasis"}]}, {"molecule": "CN(CC(=O)O)C(=N)N", "note": "[creatine]", "values": [{"measurement": "rescue of metastasis suppression upon CKB knockdown", "setting": "[6]", "result": "rescued metastasis suppression"}]}]}
